In ChEMBL document CHEMBL1201862, “PubChem BioAssay data set” (2004):
Each block holds one compound with its values, some of them ahead of it. Activity calls are given as the source filed them.

Key:
[1] = inhibitors of Vif binding to APOBEC3G peptide, primary screen, biochemical, TR-FRET, GST-Vif 1-94, biotin-A3G peptide, dose response retest (AID 1117319); format: functional;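 note: TR-FRET signal of purified GST-Vif binding a biotinylated A3G peptide; inhibitors lower the FRET signal by blocking Vif and A3G binding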
[2] = cells; format: functional, cell-based
[3] = target: T1, Trace amine-associated receptor 1 (Homo sapiens, UniProt Q96RJ0); experiment: Fluorescence-based cell-based high throughput dose response assay to identify agonists of the human trace amine associated receptor 1 (TAAR1).; format: functional
T1 sequence (Q96RJ0 whole entry): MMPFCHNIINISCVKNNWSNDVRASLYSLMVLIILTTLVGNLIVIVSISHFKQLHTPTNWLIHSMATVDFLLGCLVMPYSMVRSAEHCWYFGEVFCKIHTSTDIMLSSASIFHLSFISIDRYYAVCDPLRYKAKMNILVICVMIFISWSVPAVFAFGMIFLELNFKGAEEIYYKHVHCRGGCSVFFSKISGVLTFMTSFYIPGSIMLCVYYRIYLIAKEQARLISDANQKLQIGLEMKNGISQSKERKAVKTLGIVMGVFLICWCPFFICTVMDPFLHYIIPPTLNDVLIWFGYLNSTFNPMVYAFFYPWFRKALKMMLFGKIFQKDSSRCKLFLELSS

[4] = target: T1, Trace amine-associated receptor 1; experiment: Counterscreen for agonists of the human trace amine associated receptor 1 (hTAAR1): Fluorescence-based cell-based high throughput dose response assay to identify hTAAR1 agonist that also desensitize TAAR1 receptor response.; format: functional
[5] = cells; format: functional, cell-based; remark: listed apart in the source
[6] = human group III sPLA2 inhibitors, dose response, biochemical, QFRET, IC50 (AID 743457);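 note: green fluorescence rise as the enzyme cleaves BODIPY PC-A2 in liposomes; potency for inhibition of the enzyme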
[7] = target: Cytochrome P450 3A4 (Homo sapiens, UniProt P08684);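 note: CYP3A4 tested as one member of a cytochrome P450 panel screen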
Sequence of Cytochrome P450 3A4 (P08684 whole entry): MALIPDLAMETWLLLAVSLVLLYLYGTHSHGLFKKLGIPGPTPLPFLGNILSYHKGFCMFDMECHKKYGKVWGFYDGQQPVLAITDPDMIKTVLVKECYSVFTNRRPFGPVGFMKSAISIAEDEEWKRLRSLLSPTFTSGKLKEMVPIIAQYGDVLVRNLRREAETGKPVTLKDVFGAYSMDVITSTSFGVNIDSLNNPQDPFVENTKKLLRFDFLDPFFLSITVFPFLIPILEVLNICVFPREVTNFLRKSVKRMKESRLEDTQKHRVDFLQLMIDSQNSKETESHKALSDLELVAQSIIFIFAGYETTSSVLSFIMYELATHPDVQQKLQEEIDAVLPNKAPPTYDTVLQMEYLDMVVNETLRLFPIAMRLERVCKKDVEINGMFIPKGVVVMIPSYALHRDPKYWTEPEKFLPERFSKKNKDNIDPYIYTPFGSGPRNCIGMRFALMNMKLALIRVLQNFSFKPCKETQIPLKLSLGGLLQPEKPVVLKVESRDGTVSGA

[8] = target: Cytochrome P450 2D6 (Homo sapiens, UniProt P10635);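 note: CYP2D6 member of a cytochrome P450 panel assay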
Sequence of Cytochrome P450 2D6 (P10635 whole entry): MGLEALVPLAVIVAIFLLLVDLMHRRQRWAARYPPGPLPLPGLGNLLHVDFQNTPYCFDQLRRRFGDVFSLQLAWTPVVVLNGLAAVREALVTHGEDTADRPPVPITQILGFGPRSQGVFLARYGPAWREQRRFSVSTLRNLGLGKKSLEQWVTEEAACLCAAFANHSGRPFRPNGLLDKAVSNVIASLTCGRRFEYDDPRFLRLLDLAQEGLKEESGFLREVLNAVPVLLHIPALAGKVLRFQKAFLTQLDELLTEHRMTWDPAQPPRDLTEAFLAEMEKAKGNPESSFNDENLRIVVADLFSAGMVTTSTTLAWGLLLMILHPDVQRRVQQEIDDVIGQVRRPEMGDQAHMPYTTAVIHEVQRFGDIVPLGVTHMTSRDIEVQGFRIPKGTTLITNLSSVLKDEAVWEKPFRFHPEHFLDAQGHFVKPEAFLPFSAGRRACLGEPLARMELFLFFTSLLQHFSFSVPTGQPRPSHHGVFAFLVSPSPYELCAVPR

[9] = target: T2, Cytochrome P450 1A2 (Homo sapiens, UniProt P05177);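 note: PubChem cytochrome P450 panel assay, CYP1A2 panel member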
T2 sequence (P05177 whole entry): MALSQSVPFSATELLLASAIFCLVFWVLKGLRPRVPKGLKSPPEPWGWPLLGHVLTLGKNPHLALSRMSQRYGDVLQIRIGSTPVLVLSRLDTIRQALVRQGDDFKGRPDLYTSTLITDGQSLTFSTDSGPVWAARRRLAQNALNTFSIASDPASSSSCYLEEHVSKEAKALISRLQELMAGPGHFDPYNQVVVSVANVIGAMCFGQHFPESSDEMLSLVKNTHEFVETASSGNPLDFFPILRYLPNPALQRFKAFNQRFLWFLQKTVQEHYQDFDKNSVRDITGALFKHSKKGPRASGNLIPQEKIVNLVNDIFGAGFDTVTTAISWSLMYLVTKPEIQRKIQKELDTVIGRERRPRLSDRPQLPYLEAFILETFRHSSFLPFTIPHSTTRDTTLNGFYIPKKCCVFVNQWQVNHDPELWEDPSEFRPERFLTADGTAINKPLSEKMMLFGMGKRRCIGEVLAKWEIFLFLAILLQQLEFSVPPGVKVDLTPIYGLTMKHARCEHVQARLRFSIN

[10] = target: Estrogen receptor beta (Homo sapiens, UniProt Q92731);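 note: recombinant ER-beta bound to coactivator SRC1 peptide in presence of estradiol agonist; inhibitors block coactivator peptide binding and lower the FRET signal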
Sequence of Estrogen receptor beta (Q92731 whole entry): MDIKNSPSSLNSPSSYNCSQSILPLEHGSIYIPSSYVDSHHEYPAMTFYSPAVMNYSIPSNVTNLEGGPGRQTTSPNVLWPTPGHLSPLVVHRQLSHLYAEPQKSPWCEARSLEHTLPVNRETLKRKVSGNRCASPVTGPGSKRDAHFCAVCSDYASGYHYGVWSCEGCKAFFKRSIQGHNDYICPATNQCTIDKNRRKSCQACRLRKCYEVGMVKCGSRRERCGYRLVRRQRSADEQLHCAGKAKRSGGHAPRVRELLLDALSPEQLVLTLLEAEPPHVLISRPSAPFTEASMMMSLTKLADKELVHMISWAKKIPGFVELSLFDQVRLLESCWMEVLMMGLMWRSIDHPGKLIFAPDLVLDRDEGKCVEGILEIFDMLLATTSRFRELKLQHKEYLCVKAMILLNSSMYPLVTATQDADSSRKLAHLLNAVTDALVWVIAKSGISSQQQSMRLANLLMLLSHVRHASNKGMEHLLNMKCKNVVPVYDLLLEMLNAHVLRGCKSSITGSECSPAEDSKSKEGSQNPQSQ

[11] = target: Ephrin type-A receptor 4 (Mus musculus, UniProt Q03137); experiment: inhibitors of EphA4 binding to KYL peptide, primary screen, biochemical, colorimetric, mouse EphA4 (AID 689); format: functional
Sequence of Ephrin type-A receptor 4 (Q03137 whole entry): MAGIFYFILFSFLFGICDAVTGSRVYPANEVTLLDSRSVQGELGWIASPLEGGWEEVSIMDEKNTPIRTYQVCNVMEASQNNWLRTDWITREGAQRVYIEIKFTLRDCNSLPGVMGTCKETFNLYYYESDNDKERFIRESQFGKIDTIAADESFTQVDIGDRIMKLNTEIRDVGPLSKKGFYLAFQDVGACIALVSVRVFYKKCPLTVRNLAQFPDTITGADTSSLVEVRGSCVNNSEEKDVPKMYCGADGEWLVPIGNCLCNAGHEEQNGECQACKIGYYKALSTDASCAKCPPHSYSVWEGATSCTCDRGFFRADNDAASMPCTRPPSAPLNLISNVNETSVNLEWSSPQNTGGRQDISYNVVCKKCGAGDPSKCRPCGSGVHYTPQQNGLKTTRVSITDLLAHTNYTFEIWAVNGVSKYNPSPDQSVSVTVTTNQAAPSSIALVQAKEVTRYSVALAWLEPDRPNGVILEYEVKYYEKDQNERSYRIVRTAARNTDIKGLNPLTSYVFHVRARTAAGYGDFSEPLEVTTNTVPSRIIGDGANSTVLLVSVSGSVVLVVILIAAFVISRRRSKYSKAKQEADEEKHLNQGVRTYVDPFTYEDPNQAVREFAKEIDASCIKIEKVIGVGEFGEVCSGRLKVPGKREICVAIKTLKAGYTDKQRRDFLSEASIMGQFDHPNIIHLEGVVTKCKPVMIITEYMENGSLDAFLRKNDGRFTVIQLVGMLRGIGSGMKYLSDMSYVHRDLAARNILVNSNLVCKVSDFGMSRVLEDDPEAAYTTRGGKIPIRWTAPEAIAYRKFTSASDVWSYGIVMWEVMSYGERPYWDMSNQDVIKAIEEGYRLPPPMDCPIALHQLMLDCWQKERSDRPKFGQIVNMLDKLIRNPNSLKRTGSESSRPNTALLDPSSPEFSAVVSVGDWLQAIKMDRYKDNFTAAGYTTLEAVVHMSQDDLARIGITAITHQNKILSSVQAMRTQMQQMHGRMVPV

[12] = target: T3, Corticotropin-releasing factor receptor 2/Corticotropin-releasing factor-binding protein (Homo sapiens, UniProt P24387+Q13324); experiment: activators of CRF receptor 2 with binding protein – uHTS hits, confirmation (AID 602473); format: functional; conditions: read-out: EC50_Mean
T3 sequence (Q13324 whole entry): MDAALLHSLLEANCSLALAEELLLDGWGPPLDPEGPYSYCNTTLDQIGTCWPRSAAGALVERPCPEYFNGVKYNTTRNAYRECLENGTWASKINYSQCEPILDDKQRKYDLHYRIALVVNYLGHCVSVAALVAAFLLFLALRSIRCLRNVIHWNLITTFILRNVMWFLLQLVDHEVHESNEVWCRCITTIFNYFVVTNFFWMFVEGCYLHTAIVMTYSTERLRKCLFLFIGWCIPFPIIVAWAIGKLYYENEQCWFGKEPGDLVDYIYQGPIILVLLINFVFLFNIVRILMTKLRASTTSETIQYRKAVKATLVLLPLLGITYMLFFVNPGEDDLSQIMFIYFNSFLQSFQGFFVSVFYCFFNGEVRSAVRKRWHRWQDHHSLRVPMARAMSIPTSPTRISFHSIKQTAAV
T3 sequence (P24387 whole entry): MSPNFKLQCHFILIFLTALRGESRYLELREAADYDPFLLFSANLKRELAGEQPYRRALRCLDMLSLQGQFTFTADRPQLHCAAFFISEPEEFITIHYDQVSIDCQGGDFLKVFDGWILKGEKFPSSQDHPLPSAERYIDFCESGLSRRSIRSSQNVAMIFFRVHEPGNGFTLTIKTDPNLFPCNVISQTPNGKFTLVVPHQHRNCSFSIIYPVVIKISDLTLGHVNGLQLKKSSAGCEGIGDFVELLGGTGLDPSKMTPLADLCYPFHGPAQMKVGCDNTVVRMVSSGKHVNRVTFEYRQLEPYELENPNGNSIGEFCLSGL

[13] = target: T4, DNA repair protein RAD52 homolog (Homo sapiens, UniProt P43351); format: functional, biochemical
T4 sequence (P43351 whole entry): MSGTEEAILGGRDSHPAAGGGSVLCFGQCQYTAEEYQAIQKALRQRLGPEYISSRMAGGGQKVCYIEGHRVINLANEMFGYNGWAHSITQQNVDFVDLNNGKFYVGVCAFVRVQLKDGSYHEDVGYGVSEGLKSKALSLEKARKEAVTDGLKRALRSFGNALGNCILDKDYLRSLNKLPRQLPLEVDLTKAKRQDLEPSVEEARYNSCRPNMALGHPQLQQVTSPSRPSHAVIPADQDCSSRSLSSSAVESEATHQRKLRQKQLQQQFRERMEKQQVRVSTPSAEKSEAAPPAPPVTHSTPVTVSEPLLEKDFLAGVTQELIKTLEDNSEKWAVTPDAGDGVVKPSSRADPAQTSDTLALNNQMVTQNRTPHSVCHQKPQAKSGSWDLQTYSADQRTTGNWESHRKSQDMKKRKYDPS

[14] = target: T3, Corticotropin-releasing factor receptor 2/Corticotropin-releasing factor-binding protein; experiment: Dose Response confirmation of uHTS hits for small molecule antagonists of the CRF-binding protein and CRF-R2 receptor complex.; format: functional; conditions: read-out: IC50_Mean
[15] = test system: HEK293; experiment: inhibitors of LMP1-driven NF-kB reporter, dose response, cell-based, HEK293, luciferase, cherry-pick (AID 588343); format: functional; conditions: Homo sapiens
[16] = MC4R antagonists, dose response, counter-screen for LGR2 antagonist project, cell-based, plate reader, cherry pick (AID 743444); format: functional;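 note: transfected HEK 293 cells stimulated with alpha-MSH peptide; potency of inhibitors of the alpha-MSH evoked signal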
[17] = A549 cell cytotoxicity, dose response, cytotoxicity control, plate reader, cherry-pick, antagonist series (AID 743412); format: functional, cell-based
[18] = LGR2 antagonists, dose response, cell-based, HEK293, CRE-luciferase reporter, cherry pick, set 2 (AID 743343); format: functional;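 note: transfected cells were stimulated with diluted bursicon conditioned medium after compound addition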

IC50 [1]: > 100 µM (active)
Structure (SMILES): O=C(NCc1ccc(Cl)cc1)c1ccccc1Oc1ccccc1

Structure (SMILES): O=C(Nc1nccs1)c1[nH]cnc1C(=O)N1CCc2ccccc2C1
EC50 [2]: > 29.9 µM (inactive)
EC50 [3]: 0.858 µM (active)
IC50 [4]: 4.95 µM (active)
IC50 [5]: > 29.9 µM (inactive)

IC50 [6]: > 122 µM (inactive)
Structure (SMILES): CCN(CC)c1ccc(C=NNC(=O)c2cc(-c3ccc(C)c(C)c3)[nH]n2)c(O)c1

AC50 [7]: 15.8 µM (inconclusive)
AC50 [8]: 44.7 µM (inconclusive)
AC50 [9]: 17.8 µM (inconclusive)
IC50 [1]: > 100 µM (active)
Structure (SMILES): S=C(Nc1cccc(Cl)c1)NC1CCCCC1

Structure (SMILES): Cc1ccsc1/C=N\Nc1cnnc(O)c1Cl
EC50 [2]: > 29.9 µM (inactive)
EC50 [3]: 2.16 µM (active)
IC50 [4]: 8.29 µM (active)
IC50 [5]: > 29.9 µM (inactive)

IC50 [10]: > 50 µM (not active)
Structure (SMILES): COc1cc(NC(=O)c2cccs2)c(C(=O)OCC(=O)NC(=O)NC(C)(C)C)cc1OC

Structure (SMILES): CC(=O)OC1(c2ccc(C)cc2)CN2CCC1c1ccccc12 (stereo not drawn)
IC50 [11]: > 100 µM (not active)

EC50 [12]: > 53 µM (inactive)
AC50 [13]: 21.4 µM (active)
IC50 [14]: > 47.1 µM (inactive)
Structure (SMILES): CC(=O)c1cccc(Nc2cc(C)nc3c(C)cccc23)c1

Structure (SMILES): CC(=O)c1ccc(NC(=O)c2noc3c2CCC3)cc1
AC50 [15]: 1.92 µM (active)
AC50 [16]: 3.68 µM (active)
AC50 [17]: > 52 µM (inactive)
AC50 [18]: 2.77 µM (active)
